Where two headings read alike, the source gives them in different places.
How the values were obtained:
[1] = system: monoarthritic rat model of chronic pain induced by complete Freund's adjuvant (CFA); assay: Antiallodynic effect (von Frey mechanical allodynia) in the monoarthritic rat model of chronic pain induced by CFA; assay type: in vivo; conditions: for ED50: Rattus norvegicus, po, read-out: ED50 (compound alone); for ED50 (as restated in the formulation example): compound alone, quoted in the 20 mg formulation example; for Interaction with GBP on the antiallodynic effect (ED50mix compared with ED50add or ED50 alone): oral co-administration with GBP at fixed ratios
Description: This procedure involves the determination of the total amount in the mixture that is required to produce a specified synergistic antiallodynic effect at the 50% dose level (ED50mix) and the corresponding total amount that would be expected under simple additivity (ED50add). Where it is established that ED50mix<ED50add for a specific fixed ratio, then the composition has a synergistic antiallodynic effect. Both the quantities ED50mix and ED50add are random variables. ED50mix was determined from the dose-response curve for a specific fixed ratio of the components; ED50add was calculated from the ED50 values for the individual drugs.
Procedure for Testing the Antiallodynic Effect of the Composition of the Invention
Adult male. Wistar rats (body weight 175-200 g, Harlan-Nossan, Italy) were housed in separate cages with free access to water and standard rat chow at a constant temperature (22±0.5° C.) and relative humidity (60-70%), with a 6.00 am to 6.00 pm light-dark period.
The inflammation was induced in rats by an intra-plantar injection of complete Freund's adjuvant (CFA, Sigma-100 μl) into left hind paw containing heat-killed and dried Mycobacterium tuberculosis in a mixture of paraffin oil and mannide monooleate as emulsifying agent. A group of control animal were injected with 100 μl of mineral oil, the incomplete Freund's adjuvant (IFA, Sigma).
Each animal was allowed to develop the arthritis over an 8-9 day period of before testing.
Rats were placed in individual plastic boxes on a mesh metal floor and allowed to acclimatize for about 30 min. A series of calibrated von Frey hair with logarithmically incremental stiffness (from 2.83 to 5.88×Log10 of the bending force, g) were applied to the paw with the up-down method. Each hair was presented perpendicularly against the paw, with sufficient force to cause slight bending, and held approximately 2-3 sec. The filament was recorded when a positive response was noted (paw withdrawn, licking or shaking).
The antiallodynic effect was expressed as % MPE (Maximal Possible Effect) at 2 h post-dosing.
The rats were all dosed orally with various doses of an α-aminoamide alone, GBP alone, combined doses of an α-aminoamide and GBP or vehicle. The dosing volume was 2 ml/kg. The dosing materials were all prepared in the vehicle, (distilled water); drug weights were calculated as the free base.
Data are presented as mean of 4/6 animals per group/dose.
The ED50 was defined as the dose producing 50% reversal of mechanical hyperalgesia at 2 h after treatment. An experimental ED50 and 95% confidence intervals (CI) were calculated for each compound alone from the linear regressions fitting the experimental data according to the equation y=a+bx.
The different α-aminoamides were then combined with GBP at different ratios in relation to their respective ED50 previously calculated (not limiting examples of the ratios are 1:1; 1:3; 1:9 and respectively 1:1, 3:1 and 9:1 ratios) for the evaluation of the synergic effect.
Multiple (typically 4) doses of each selected ratio were then studied orally for evaluating the synergic effect of the combination.
Each rat received only one treatment.

[2] = Rat Rotarod test (motor impairment and ataxia); conditions: in vivo, po, p.o. at 2 hours, dose causing 50% of the animals to fall from the roller, read-out: TD50 (compound alone)
Description: The Rotarod test is an established method used as predictive of CNS-related side effects in humans, and in particular motor impairment and ataxia.
The different α-aminoamides were then combined with GBP at different ratios in relation to their respective TD50 previously calculated (a non limiting example of the ratios is the 1:1 ratio) for the evaluation of the possible synergic effect. Data are presented as mean of 8/10 animals per group/dose.
The test was performed 120 min after drug administration.

[3] = 2 h after single administration, dose producing 50% reversal of mechanical hyperalgesia, CFA rats

Compound	ED50 [1, 3]	ED50 ([1]; 2 h)	ED50 (as restated in the formulation example) [1]	TD50 at 120 min [2]	Interaction with GBP on the antiallodynic effect (ED50mix compared with ED50add or ED50 alone) [1]
NC(=O)NN=Cc1ccc(Oc2ccc(F)cc2)cc1 [4-(4′-fluoro-phenoxy)benzaldehyde semicarbazone, reference compound]	14.5 mg/kg	–	–	–	–
NCC1(CC(=O)O)CCCCC1 [GBP, 1-(aminomethyl)cyclohexaneacetic acid, reference compound]	–	12.4 mg/kg	12.40 mg	430 mg/kg	–
C[C@H](NCc1ccc(OCc2ccccc2F)cc1)C(N)=O [NW-1029, (S)-(+)-2-[4-(2-fluorobenzyloxy)benzylamino]propanamide]	0.82 mg/kg	–	0.82 mg	470 mg/kg	synergic to GBP
CNC(=O)[C@@H](Cc1ccccc1)NCc1ccc(OCc2ccccc2)cc1 [NW-1037, (R)-(−)-2-[4-benzyloxybenzylamino]-3-phenyl-N-methylpropanamide]	3.45 mg/kg	–	–	–	synergic to GBP
CNC(=O)[C@H](C)NCc1ccc(OCc2cccc(F)c2)cc1 [NW-1043, (S)-(+)-2-[4-(3-fluorobenzyloxy)-benzylamino]-N-methyl-propanamide]	7.05 mg/kg	–	–	–	synergic to GBP

Reference: US8710040B2, “Pharmaceutical composition comprising gabapentin or an analogue thereof and an α-aminoamide and its analgesic use” (Newron Pharmaceuticals S.p.A., priority 2001, dated 2014)
